Results as given in PMC9861623, “New Ferulic Acid and Amino Acid Derivatives with Increased Cosmeceutical and Pharmaceutical Potential” (Pharmaceutics, 2022).
Values joined by “and” are separate entries in the source; they are usually repeats but may differ in a detail not shown here. Equal values may be shown once. Read-outs that look alike come from different tables or passages of the source.

Legend:
[1] = Thermogravimetric (TG) analysis, thermal stability; type: physicochemical
Protocol: Samples of 2–5 mg, loaded in aluminium crucibles, were heated from 30 °C to 600 °C at the heating rate of 10 °C·min^−1, in the air atmosphere (25 mL·min^−1) with nitrogen flow (10 mL·min^−1) as the purge gas.

L929 cells [2] = test system: L929 cells; design: method as in PMID 24344870; conditions: L929, 72 h, cited from earlier work
diabetic rats = test system: diabetic rats; design: method as in doi:10.1016/j.jddst.2022.103621; conditions: 50 mg kg^−1 body wt., orally for 8 weeks; cited from earlier work
[3] = DPPH antioxidant activity of solution obtained after skin extraction; design: species or system pig; conditions: after 24 h penetration, listed as FA
Protocol: (§1) To determine the antioxidant capacity of ferulic acid and its derivatives the DPPH method was used. The analyses were performed using the Hitachi UV-Vis Spectrophotometer U-5100 at the wavelength λ = 517 nm. Trolox (6-hydroxy-2,5,7,8-tetramethylchroman-2-carboxylic acid) was used as a reference substance. The antioxidant activity was expressed as %RSA and mmol Trolox dm^−3. […]. Blank samples without antioxidant were prepared in the same way. The tubes were wrapped in aluminum foil and were sealed with a stopper and then incubated for 10 min at room temperature. After this time, spectrophotometric measurements were carried out in triplicate. For determination of antioxidant activity of the acceptor fluid after 24 h of permeation and solutions obtained by extraction of the skin obtained after penetration study, 0.15 mL samples of each solutions were separately added to 2.85 mL of DPPH solution and spectrophotometric measurements were performed. The antioxidant activity was expressed as mmol Trolox·dm^−3.
The accumulation of the FA and its derivatives in the skin after 24 h permeation process through the skin were determined using a modification of the methods described by Janus et al. and Taokaew et al.. After 24 h of permeation experiment, the skin samples were removed from the Franz diffusion cell, washed three times with 0.5% sodium lauryl sulfate solution and dried at room temperature. Next, after cutting out the diffusion area of each skin sample, the samples were immersed in 2 mL of absolute ethanol and continuously stirred at 300 rpm at room temperature for 24 h. The samples were then centrifuged, and clear solutions were collected and analyzed by HPLC method for the determination of FA and its derivatives. The accumulation of the active substance in the skin was calculated by dividing the amount of the drug remaining in the skin by a mass of skin sample and was expressed in mass active substance per mass of the skin (µg g^−1). For solution obtained after skin extraction, the antioxidant activity and total polyphenol content were also determined (as described in Section 2.5.1 and Section 2.5.2).

cancer cells (HepG2) = test system: cancer cells (HepG2); design: method as in PMID 29077251; conditions: HepG2, 500 μg mL^−1; cited from earlier work
NRK-52E cells = test system: NRK-52E cells; design: method as in doi:10.1016/j.jddst.2022.103621; conditions: 75 μM, high glucose environment; cited from earlier work
fibroblasts = test system: fibroblasts; design: method as in doi:10.3390/pr9071204; conditions: fibroblasts after UVB irradiation, increased from 9.92%; cited from earlier work
L929 cells [4] = test system: L929 cells; design: method as in PMID 32485864; conditions: L929, 24 h, 2.5–40 mg L^−1, MTT assay; cited from earlier work
[5] = DPPH antioxidant activity of acceptor fluid after 24 h permeation; design: species or system pig; conditions: after 24 h penetration
Protocol: as §1
The permeation experiments were performed using Franz diffusion cells (Phoenix DB-6, ABL&E-JASCO, Wien, Austria). The diffusion was 1 cm^2. The volume of the acceptor chamber was 8 mL. This chamber was filled with PBS solution (pH 7.4). During experiment, a constant temperature of 37.0 ± 0.5 °C was maintained in each diffusion unit. The acceptor chamber content was stirred with a magnetic stirring bar at the same speed for all cells. The prepared pig skin was mounted on each donor chamber. As previously mentioned, only undamaged skin pieces with an even thickness were chosen for experiments. Thereafter, the hydrogel or emulsion vehicle/preparation in 1 g portion was put on the skin in donor cells. For comparison, 1 mL ethanolic solution containing either FA or its derivatives was applied to another donor chamber. The amount of the FA and its derivatives applied on the skin expressed as the mass of ferulic acid was 0.01 g and was the same for each carrier. The penetration experiments were carried out for 24 h. The samples were collected after 1 h, 2 h, 3 h, 4 h, 5 h, 6 h, 8 h, and 24 h. Aliquots of the acceptor fluid (0.5 mL) were withdrawn and to each acceptor chamber the same volume of fresh PBS solution was added. The FA and its derivatives’ concentrations in the acceptor fluid were measured by HPLC method (Section 2.6.2). The cumulative mass (µg·cm^−2) and penetration rate (µg·cm^−2·h^−1) were calculated. The acceptor fluid collected after 24 h of permeation was also measured for antioxidant activity and total polyphenol content (as described in Section 2.5.1 and Section 2.5.2).

## COc1cc(/C=C/C(=O)O)ccc1O [Ferulic acid]
[1]; TG, air atmosphere, 10 °C·min^−1
  Td onset, the onset of decomposition: 217.0 °C
[1]; TG/DTG, air atmosphere, 10 °C·min^−1
  Td max, temperature of the fastest mass loss of the sample: 251.2 °C
[1]; according to the DTG curve
  Temperature range of decomposition (main weight loss): 175–300 °C
L929 cells [2]; 500 μg mL^−1 (2.57 mM)
  cell viability: 67%
L929 cells [2]; 1000 μg mL^−1 (5.15 mM)
  cell viability: 28%
Diabetic rats
  effect in diabetic rats: markedly ameliorated kidney injury, renal cell apoptosis, inflammation, and defective autophagy in the kidneys
[3]; emulsion
  DPPH antioxidant activity of the solution obtained after skin extraction: 0.300 ± 0.024 b mmol Trolox dm^−3
[3]; ethanol solution
  DPPH antioxidant activity of the solution obtained after skin extraction: 0.394 ± 0.004 mmol Trolox dm^−3 and 0.394 ± 0.004 b mmol Trolox dm^−3
[3]; hydrogel
  DPPH antioxidant activity of the solution obtained after skin extraction: 0.381 ± 0.011 mmol Trolox dm^−3 and 0.381 ± 0.011 b mmol Trolox dm^−3
Cancer cells (HepG2)
  viability of cancer cells: significantly decreased the viability
NRK-52E cells
  effect in cultured NRK-52E cells: countered excessive ROS generation, induced autophagy, and inhibited apoptotic death of cells
fibroblasts
  percentage of viable cells: 46.02%
L929 cells [4]
  effect on cell viability/proliferation: no effect on cell viability/proliferation
[5]; emulsion
  DPPH antioxidant activity of the acceptor fluid: 0.057 ± 0.004 a mmol Trolox dm^−3
[5]; ethanol solution, listed as FA
  DPPH antioxidant activity of the acceptor fluid: 0.079 ± 0.010 mmol Trolox dm^−3 and 0.079 ± 0.010 a mmol Trolox dm^−3
[5]; hydrogel
  DPPH antioxidant activity of the acceptor fluid: 0.067 ± 0.004 a mmol Trolox dm^−3
